# How the values were obtained:
# [1] = system: tyrosine kinase activity in cell line lysates; assay: Peptide array profiling of 9 cell line lysates in the presence of MTKI or Tarceva; assay type: biochemical; details: GTL16 lysates; 5 μM
# Description: To test whether other EGFR inhibitors, related to MTKI, such as Tarceva (erlotinib; OSI pharmaceuticals), are also amenable to this response prediction methodology, 9 cell lines were profiled in the presence of MTKI, or Tarceva (5 μM in both cases). […] The value of the previously derived MTKI prediction peptides is illustrated in Tables 6A to C. Based on these peptides also response to Tarceva can be predicted with identical accuracy as for MTKI (and with the same false predictions, in casu H2009 and MOLT4).
# [2] = system: cMet kinase activity in cell lysates; assay: 140-tyrosine peptide array profiling of cell lysates with cMET inhibitor 605; assay type: biochemical; details: responder cell lysates; 1 μM compound
# Text: To examine whether the currently available 140-tyrosine peptide arrays from Pamgene will also detect other kinase activities then those described above, another compound was profiled using the same methodology: this is an exquisitely selective inhibitor of the cMET receptor tyrosine kinase (see US2007 0203136 A1) and with formula: […]
# (§1) As shown in Example 7, clear-cut differences in peptide phosphorylation inhibition by 605 could be identified in the responder lysates versus non-responder lysates. Note that the cMet signature peptide set features two peptides derived from Ron, the closest homologue to cMet. […] The 605 signature peptides show no overlap at all with the MTKI signature peptides set, consistent with the absence of any overlap in kinase specificity between MTKI and 605.
# [3] = system: HGF-induced colony formation; assay: HGF-induced colony formation (responsiveness to 605); assay type: cell-based; parameters: key: R = Responder to cMET; NR = Non-Responder to cMET
# Ron kinase = Ron kinase (Homo sapiens, UniProt Q04912); assay: Purified Ron kinase inhibition; assay type: biochemical; details: 1 μM
# Sequence of Ron kinase (Q04912 25-1400): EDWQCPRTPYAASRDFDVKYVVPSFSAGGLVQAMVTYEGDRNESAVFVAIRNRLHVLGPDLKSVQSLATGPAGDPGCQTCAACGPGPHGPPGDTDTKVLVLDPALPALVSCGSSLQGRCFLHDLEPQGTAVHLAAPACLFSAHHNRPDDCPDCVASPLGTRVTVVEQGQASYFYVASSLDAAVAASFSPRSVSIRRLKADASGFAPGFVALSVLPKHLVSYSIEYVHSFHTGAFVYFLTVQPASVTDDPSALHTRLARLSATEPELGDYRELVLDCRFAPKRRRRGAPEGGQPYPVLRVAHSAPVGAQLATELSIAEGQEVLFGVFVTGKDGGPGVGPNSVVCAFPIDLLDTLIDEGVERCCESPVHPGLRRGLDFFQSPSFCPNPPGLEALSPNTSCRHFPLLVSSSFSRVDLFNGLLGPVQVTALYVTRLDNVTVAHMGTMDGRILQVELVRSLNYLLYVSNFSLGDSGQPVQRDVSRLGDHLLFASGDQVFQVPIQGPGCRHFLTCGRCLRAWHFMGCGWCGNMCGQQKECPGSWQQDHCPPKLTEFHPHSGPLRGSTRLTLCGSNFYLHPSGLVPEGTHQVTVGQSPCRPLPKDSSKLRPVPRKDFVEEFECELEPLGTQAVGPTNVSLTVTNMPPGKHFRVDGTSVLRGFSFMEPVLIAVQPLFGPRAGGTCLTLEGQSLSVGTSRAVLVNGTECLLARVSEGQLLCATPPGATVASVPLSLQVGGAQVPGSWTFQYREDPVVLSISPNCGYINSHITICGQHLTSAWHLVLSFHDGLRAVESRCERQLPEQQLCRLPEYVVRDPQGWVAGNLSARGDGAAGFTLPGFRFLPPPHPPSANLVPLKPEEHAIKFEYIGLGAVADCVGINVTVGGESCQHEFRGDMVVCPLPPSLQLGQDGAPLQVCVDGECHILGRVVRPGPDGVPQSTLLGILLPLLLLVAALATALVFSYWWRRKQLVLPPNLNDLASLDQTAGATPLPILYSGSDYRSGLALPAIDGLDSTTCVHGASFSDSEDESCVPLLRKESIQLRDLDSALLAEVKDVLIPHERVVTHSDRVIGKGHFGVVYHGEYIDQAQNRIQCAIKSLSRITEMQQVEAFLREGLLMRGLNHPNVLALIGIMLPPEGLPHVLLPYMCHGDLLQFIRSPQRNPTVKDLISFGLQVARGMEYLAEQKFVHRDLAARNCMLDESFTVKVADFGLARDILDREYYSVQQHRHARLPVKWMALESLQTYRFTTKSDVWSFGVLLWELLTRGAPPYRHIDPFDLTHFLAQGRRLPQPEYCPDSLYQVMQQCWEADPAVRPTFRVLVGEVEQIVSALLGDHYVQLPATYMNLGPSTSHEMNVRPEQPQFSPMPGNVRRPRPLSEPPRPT
# Text: as §1
Structure (SMILES),activity in lysate inhibition profile compared to MTKI [1],inhibition of peptide phosphorylation [2],response status ([3]; A549 cell line),response status ([3]; Caco2 cell line),response status ([3]; H322 cell line),response status ([3]; H441 cell line),response status ([3]; H1792 cell line),response status ([3]; H2106 cell line),response status ([3]; H2122 cell line),response status ([3]; Kato2 cell line),response status ([3]; MKN45 cell line),response status ([3]; N87 cell line),response status ([3]; SNU5 cell line),response status ([3]; SNU484 cell line),response status ([3]; WIDR cell line),response status ([3]; YKG cell line),inhibition of purified Ron kinase (Ron kinase)
"C#Cc1cccc(Nc2ncnc3cc(OCCOC)c(OCCOC)cc23)c1 [Tarceva, reference compound]",additional activity,–,–,–,–,–,–,–,–,–,–,–,–,–,–,–,–
Cn1cc(-c2ccc3nnc(C(F)(F)c4ccc5ncccc5c4)n3n2)cn1 [compound 605],–,significant inhibition,NR,NR,NR,R,R,NR,NR,R,R,NR,R,NR,R,NR,does not inhibit

# — patent US20100234238A1, “METHOD FOR PROFILING KINASE INHIBITORS” (Janssen Pharmaceutica N V, priority 2006, published 2010)
